{
  "source": "ChEMBL document CHEMBL4387741",
  "about": "“Optimization of novel reversible Bruton's tyrosine kinase inhibitors identified using Tethering-fragment-based screens” (Bioorg Med Chem, 2019)",
  "key": {"[1]": {"molecular_target": "Tyrosine-protein kinase TXK (Homo sapiens) (UniProt P42681)", "experiment": "Inhibition of wild-type human partial length TXK (L238 to W527 residues) expressed in bacterial expression system at 1 uM by Kinomescan method relative to control"}, "[2]": {"molecular_target": "Megakaryocyte-associated tyrosine-protein kinase (Homo sapiens) (UniProt P42679)", "experiment": "Inhibition of wild-type human full length CTK (M43 to P508 residues) expressed in mammalian expression system at 1 uM by Kinomescan method relative to control"}, "[3]": {"tested_on": "Epidermal growth factor receptor (Homo sapiens), P00533 [UNDEFINED MUTATION]", "experiment": "Inhibition of human partial length EGFR L747-T751del/Sins mutant expressed in bacterial expression system at 1 uM by Kinomescan method relative to control"}, "[4]": {"molecular_target": "Serine/threonine-protein kinase Nek1 (Homo sapiens) (UniProt Q96PY6)", "experiment": "Inhibition of wild-type human partial length NEK1 (M1 to K278 residues) expressed in bacterial expression system at 1 uM by Kinomescan method relative to control"}, "[5]": {"molecular_target": "MAP/microtubule affinity-regulating kinase 4 (Homo sapiens) (UniProt Q96L34)", "experiment": "Inhibition of wild-type human partial length MARK4 (K29 to G340 residues) expressed in bacterial expression system at 1 uM by Kinomescan method relative to control"}, "[6]": {"molecular_target": "Casein kinase I isoform alpha-like (Homo sapiens) (UniProt Q8N752)", "experiment": "Inhibition of wild-type human full length CSNK1A1L (M1 to N337 residues) expressed in bacterial expression system at 1 uM by Kinomescan method relative to control"}, "[7]": {"molecular_target": "Dual specificity protein kinase CLK1 (Homo sapiens) (UniProt P49759)", "experiment": "Inhibition of wild-type human full length CLK1 (M1 to I484 residues) expressed in bacterial expression system at 1 uM by Kinomescan method relative to control"}, "[8]": {"molecular_target": "Eukaryotic translation initiation factor 2-alpha kinase 1 (Homo sapiens) (UniProt Q9BQI3)", "experiment": "Inhibition of wild-type human partial length EIF2AK1 (Q147 to E603 residues) expressed in mammalian expression system at 1 uM by Kinomescan method relative to control"}, "[9]": {"molecular_target": "Rho-associated protein kinase 1 (Homo sapiens) (UniProt Q13464)", "experiment": "Inhibition of wild-type human partial length ROCK1 (M1 to R415 residues) expressed in mammalian expression system at 1 uM by Kinomescan method relative to control"}, "[10]": {"molecular_target": "Mitogen-activated protein kinase kinase kinase 11 (Homo sapiens) (UniProt Q16584)", "experiment": "Inhibition of wild-type human partial length MLK3 (I77 to W399 residues) expressed in bacterial expression system at 1 uM by Kinomescan method relative to control"}, "[11]": {"molecular_target": "Myosin light chain kinase family member 4 (Homo sapiens) (UniProt Q86YV6)", "experiment": "Inhibition of wild-type human partial length MYLK4 (V79 to S380 residues) expressed in bacterial expression system at 1 uM by Kinomescan method relative to control"}, "[12]": {"molecular_target": "Casein kinase II subunit alpha' (Homo sapiens) (UniProt P19784)", "experiment": "Inhibition of wild-type human full length CSNK2A2 (M1 to R350 residues) expressed in mammalian expression system at 1 uM by Kinomescan method relative to control"}, "[13]": {"molecular_target": "Serine/threonine-protein kinase MAK (Homo sapiens) (UniProt P20794)", "experiment": "Inhibition of wild-type human partial length MAK (M1 to P314 residues) expressed in bacterial expression system at 1 uM by Kinomescan method relative to control"}, "[14]": {"molecular_target": "Ephrin type-A receptor 2 (Homo sapiens) (UniProt P29317)", "experiment": "Inhibition of wild-type human partial length EPHA2 (T593 to V891 residues) expressed in bacterial expression system at 1 uM by Kinomescan method relative to control"}, "[15]": {"experiment": "Lipophilicity, log D of the compound", "format": "physicochemical", "settings": "octanol/water"}, "[16]": {"molecular_target": "Serine/threonine-protein kinase MRCK gamma (Homo sapiens) (UniProt Q6DT37)", "experiment": "Inhibition of wild-type human partial length DMPK2 (S46 to S408 residues) expressed in bacterial expression system at 10 uM by Kinomescan method relative to control"}, "[17]": {"molecular_target": "Serine/threonine-protein kinase 35 (Homo sapiens) (UniProt Q8TDR2)", "experiment": "Inhibition of wild-type human partial length STK35 (G182 to A534 residues) expressed in bacterial expression system at 10 uM by Kinomescan method relative to control"}, "[18]": {"molecular_target": "Serine/threonine-protein kinase Nek11 (Homo sapiens) (UniProt Q8NG66)", "experiment": "Inhibition of wild-type human partial length NEK11 (M1 to E313 residues) expressed in mammalian expression system at 10 uM by Kinomescan method relative to control"}, "[19]": {"molecular_target": "Serine/threonine-protein kinase WNK1 (Homo sapiens) (UniProt Q9H4A3)", "experiment": "Inhibition of wild-type human partial length WNK1 (Q194 to A490 residues) expressed in mammalian expression system at 10 uM by Kinomescan method relative to control"}, "[20]": {"molecular_target": "Casein kinase II subunit alpha (Homo sapiens) (UniProt P68400)", "experiment": "Inhibition of wild-type human full length CSNK2A1 (M1 to Q391 residues) expressed in mammalian expression system at 10 uM by Kinomescan method relative to control"}, "[21]": {"molecular_target": "Bone morphogenetic protein receptor type-2 (Homo sapiens) (UniProt Q13873)", "experiment": "Inhibition of wild-type human partial length BMPR2 (R179 to Q526 residues) expressed in mammalian expression system at 10 uM by Kinomescan method relative to control"}, "[22]": {"molecular_target": "Tyrosine-protein kinase ITK/TSK (Homo sapiens) (UniProt Q08881)", "experiment": "Inhibition of wild-type human partial length ITK (R335 to L620 residues) expressed in bacterial expression system at 10 uM by Kinomescan method relative to control"}, "[23]": {"molecular_target": "Mitogen-activated protein kinase 6 (Homo sapiens) (UniProt Q16659)", "experiment": "Inhibition of wild-type human partial length ERK3 (M1 to P413 residues) expressed in bacterial expression system at 10 uM by Kinomescan method relative to control"}, "[24]": {"tested_on": "Receptor-type tyrosine-protein kinase FLT3 (Homo sapiens), P36888 [UNDEFINED MUTATION]", "experiment": "Inhibition of human partial length FLT3 ITD/F691L double mutant expressed in bacterial expression system at 10 uM by Kinomescan method relative to control"}, "[25]": {"molecular_target": "Mitogen-activated protein kinase kinase kinase 5 (Homo sapiens) (UniProt Q99683)", "experiment": "Inhibition of wild-type human partial length ASK1 (E648 to S964 residues) expressed in bacterial expression system at 10 uM by Kinomescan method relative to control"}, "[26]": {"molecular_target": "Serine/threonine-protein kinase SBK1 (Homo sapiens) (UniProt Q52WX2)", "experiment": "Inhibition of wild-type human partial length SBK1 (P23 to P348 residues) expressed in mammalian expression system at 10 uM by Kinomescan method relative to control"}, "[27]": {"molecular_target": "Wee1-like protein kinase (Homo sapiens) (UniProt P30291)", "experiment": "Inhibition of wild-type human partial length WEE1 (M291 to K575 residues) expressed in bacterial expression system at 10 uM by Kinomescan method relative to control"}, "[28]": {"molecular_target": "Phosphatidylinositol 3-kinase catalytic subunit type 3 (Homo sapiens) (UniProt Q8NEB9)", "experiment": "Inhibition of wild-type human partial length VPS34 (S282 to H879 residues) expressed in mammalian expression system at 10 uM by Kinomescan method relative to control"}},
  "data": [
    {"smiles": "O=C(Nc1cccc([C@@H]2CN(c3ncnc4[nH]ccc34)CCN2CCO)c1)Nc1c(F)cccc1N1CCCC1", "values": [
      {"measurement": "inhibition", "setting": "[1]", "result": 63, "unit": "%"},
      {"measurement": "inhibition", "setting": "[2]", "result": 81, "unit": "%"},
      {"measurement": "inhibition", "setting": "[3]", "result": 76, "unit": "%"},
      {"measurement": "inhibition", "setting": "[4]", "result": 100, "unit": "%"},
      {"measurement": "inhibition", "setting": "[5]", "result": 77, "unit": "%"},
      {"measurement": "inhibition", "setting": "[6]", "result": 100, "unit": "%"},
      {"measurement": "inhibition", "setting": "[7]", "result": 84, "unit": "%"},
      {"measurement": "inhibition", "setting": "[8]", "result": 100, "unit": "%"},
      {"measurement": "inhibition", "setting": "[9]", "result": 71, "unit": "%"},
      {"measurement": "inhibition", "setting": "[10]", "result": 100, "unit": "%"},
      {"measurement": "inhibition", "setting": "[11]", "result": 100, "unit": "%"},
      {"measurement": "inhibition", "setting": "[12]", "result": 81, "unit": "%"},
      {"measurement": "inhibition", "setting": "[13]", "result": 94, "unit": "%"},
      {"measurement": "inhibition", "setting": "[14]", "result": 98, "unit": "%"},
      {"measurement": "logD", "setting": "[15]", "result": 2.6}
    ]},
    {"smiles": "O=C(Nc1cccc([C@H]2CCCN(c3ncnc4[nH]ccc34)C2)c1)Nc1ccccc1N1CCCC1", "values": [
      {"measurement": "inhibition", "setting": "[16]", "result": 62, "unit": "%"},
      {"measurement": "inhibition", "setting": "[17]", "result": 99, "unit": "%"},
      {"measurement": "inhibition", "setting": "[18]", "result": 69, "unit": "%"},
      {"measurement": "inhibition", "setting": "[19]", "result": 72, "unit": "%"},
      {"measurement": "inhibition", "setting": "[20]", "result": 67, "unit": "%"},
      {"measurement": "inhibition", "setting": "[21]", "result": 51, "unit": "%"},
      {"measurement": "inhibition", "setting": "[22]", "result": 7, "unit": "%"},
      {"measurement": "inhibition", "setting": "[23]", "result": 100, "unit": "%"},
      {"measurement": "inhibition", "setting": "[24]", "result": 3.6, "unit": "%"},
      {"measurement": "inhibition", "setting": "[25]", "result": 100, "unit": "%"},
      {"measurement": "inhibition", "setting": "[26]", "result": 42, "unit": "%"},
      {"measurement": "inhibition", "setting": "[27]", "result": 100, "unit": "%"},
      {"measurement": "inhibition", "setting": "[28]", "result": 52, "unit": "%"}
    ]}
  ]
}
